Measured values as given in ChEMBL document CHEMBL4052645, “Discovery of potent and efficacious pyrrolopyridazines as dual JAK1/3 inhibitors” (Bioorg Med Chem Lett, 2017).

Assays:
[1] = target: Atypical kinase COQ8A, mitochondrial (Homo sapiens) (UniProt Q8NI60); test: Inhibition of wild-type human […] ADCK3 (M280 to Q647 residues) expressed in bacterial expression system assessed as residual activity at 50 nM by Kinomescan method relative to control
[2] = target: Homeodomain-interacting protein kinase 1 (Homo sapiens) (UniProt Q86Z02); test: Inhibition of wild-type human partial length HIPK1 (M146 to I555 residues) expressed in mammalian expression system assessed as residual activity at 50 nM by Kinomescan method relative to control
[3] = target: Mitogen-activated protein kinase 3 (Homo sapiens) (UniProt P27361); test: Inhibition of wild-type human full length ERK1 (M1 to P379 residues) expressed in bacterial expression system assessed as residual activity at 50 nM by Kinomescan method relative to control
[4] = target: Ephrin type-A receptor 2 (Homo sapiens) (UniProt P29317); test: Inhibition of wild-type human partial length EPHA2 (T593 to V891 residues) expressed in bacterial expression system assessed as residual activity at 50 nM by Kinomescan method relative to control
[5] = target: Serine/threonine-protein kinase RIO2 (Homo sapiens) (UniProt Q9BVS4); test: Inhibition of wild-type human partial length RIOK2 (M1 to D313 residues) expressed in mammalian expression system assessed as residual activity at 50 nM by Kinomescan method relative to control
[6] = target: Non-receptor tyrosine-protein kinase TYK2 (Homo sapiens, UniProt P29597); test: Inhibition of wild-type human partial length TYK2 JH2 pseudokinase domain (G556 to D888 residues) expressed in mammalian expression system assessed as residual activity at 50 nM by Kinomescan method relative to control
[7] = target: JAK2 (Homo sapiens, UniProt O60674); test: Inhibition of human JAK2 (A829 to G1132 residues) expressed in mammalian expression system assessed as residual activity at 50 nM by KINOMEscan assay relative to control; conditions: read-out: Activity
[8] = target: Cyclin-dependent kinase 8 (Homo sapiens) (UniProt P49336); test: Inhibition of wild-type human partial length CDK8 (M1 to T360 residues) expressed in bacterial expression system assessed as residual activity at 50 nM by Kinomescan method relative to control
[9] = target: Tyrosine-protein kinase ZAP-70 (Homo sapiens) (UniProt P43403); test: Inhibition of wild-type human partial length ZAP70 (D20 to G299 residues) expressed in mammalian expression system assessed as residual activity at 50 nM by Kinomescan method relative to control
[10] = target: Ephrin type-A receptor 1 (Homo sapiens) (UniProt P21709); test: Inhibition of wild-type human partial length EPHA1 (V588 to I913 residues) expressed in bacterial expression system assessed as residual activity at 50 nM by Kinomescan method relative to control
[11] = target: Fibroblast growth factor receptor 4 (Homo sapiens) (UniProt P22455); test: Inhibition of wild-type human partial length FGFR4 (G402 to E713 residues) expressed in bacterial expression system assessed as residual activity at 50 nM by Kinomescan method relative to control
[12] = target: Myosin-IIIa (Homo sapiens) (UniProt Q8NEV4); test: Inhibition of wild-type human partial length MYO3A (M1 to K338 residues) expressed in bacterial expression system assessed as residual activity at 50 nM by Kinomescan method relative to control
[13] = target: Microtubule-associated serine/threonine-protein kinase 1 (Homo sapiens) (UniProt Q9Y2H9); test: Inhibition of wild-type human partial length MAST1 (S346 to V730 residues) expressed in mammalian expression system assessed as residual activity at 50 nM by Kinomescan method relative to control
[14] = target: Serine/threonine-protein kinase MRCK alpha (Homo sapiens) (UniProt Q5VT25); test: Inhibition of wild-type human partial length MRCKA (L57 to V418 residues) expressed in bacterial expression system assessed as residual activity at 50 nM by Kinomescan method relative to control
[15] = target: Rhodopsin kinase GRK1 (Homo sapiens) (UniProt Q15835); test: Inhibition of wild-type human full length RHOK (M1 to S563 residues) expressed in mammalian expression system assessed as residual activity at 50 nM by Kinomescan method relative to control
[16] = target: MAP kinase-interacting serine/threonine-protein kinase 2 (Homo sapiens) (UniProt Q9HBH9); test: Inhibition of wild-type human partial length MNK2 (G63 to S388 residues) expressed in mammalian expression system assessed as residual activity at 50 nM by Kinomescan method relative to control
[17] = target: Calcium/calmodulin-dependent protein kinase type 1G (Homo sapiens) (UniProt Q96NX5); test: Inhibition of wild-type human partial length CAMK1G (M1 to A342 residues) expressed in bacterial expression system assessed as residual activity at 50 nM by Kinomescan method relative to control
[18] = target: Ribosomal protein S6 kinase alpha-1 (Homo sapiens) (UniProt Q15418); test: Inhibition of wild-type human partial length N-terminal RSK1 Kinase domain 1 (M1 to E388 residues) expressed in bacterial expression system assessed as residual activity at 50 nM by Kinomescan method relative to control
[19] = target: Cyclin-dependent kinase 2 (Homo sapiens) (UniProt P24941); test: Inhibition of wild-type human full length CDK2 (M1 to L298 residues) expressed in bacterial expression system assessed as residual activity at 50 nM by Kinomescan method relative to control
[20] = target: Phosphatidylinositol 5-phosphate 4-kinase type-2 beta (Homo sapiens) (UniProt P78356); test: Inhibition of wild-type human full length PIP5K2B (M1 to T416 residues) expressed in bacterial expression system assessed as residual activity at 50 nM by Kinomescan method relative to control
[21] = target: Phosphatidylinositol 4,5-bisphosphate 3-kinase catalytic subunit beta isoform (Homo sapiens) (UniProt P42338); test: Inhibition of wild-type human partial length PI3KCB (P118 to S1070 residues) expressed in mammalian expression system assessed as residual activity at 50 nM by Kinomescan method relative to control
[22] = target: Ephrin type-B receptor 1 (Homo sapiens) (UniProt P54762); test: Inhibition of wild-type human partial length EPHB1 (P589 to T911 residues) expressed in bacterial expression system assessed as residual activity at 50 nM by Kinomescan method relative to control
[23] = target: TRAF2 and NCK-interacting protein kinase (Homo sapiens) (UniProt Q9UKE5); test: Inhibition of wild-type human partial length TNIK (D4 to K311 residues) expressed in bacterial expression system assessed as residual activity at 50 nM by Kinomescan method relative to control
[24] = target: Dual specificity tyrosine-phosphorylation-regulated kinase 1A (Homo sapiens) (UniProt Q13627); test: Inhibition of wild-type human partial length DYRK1A (H129 to S509 residues) expressed in mammalian expression system assessed as residual activity at 50 nM by Kinomescan method relative to control
[25] = target: Protein kinase C eta type (Homo sapiens) (UniProt P24723); test: Inhibition of wild-type human partial length PKCH (S324 to P683 residues) expressed in bacterial expression system assessed as residual activity at 50 nM by Kinomescan method relative to control

Sequence of Mitogen-activated protein kinase 3 (Homo sapiens) (P27361 whole entry, the tested form may be a part): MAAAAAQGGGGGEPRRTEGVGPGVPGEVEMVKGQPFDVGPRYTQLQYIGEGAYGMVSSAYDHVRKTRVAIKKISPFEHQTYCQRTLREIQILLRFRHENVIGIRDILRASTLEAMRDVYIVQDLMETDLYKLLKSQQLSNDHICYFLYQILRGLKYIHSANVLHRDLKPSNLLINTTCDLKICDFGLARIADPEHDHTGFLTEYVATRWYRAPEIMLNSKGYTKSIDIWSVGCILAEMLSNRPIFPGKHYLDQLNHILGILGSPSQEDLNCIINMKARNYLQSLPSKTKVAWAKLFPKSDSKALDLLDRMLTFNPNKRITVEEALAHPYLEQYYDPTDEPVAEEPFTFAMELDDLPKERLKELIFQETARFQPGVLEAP
Sequence of Ephrin type-A receptor 1 (Homo sapiens) (P21709 whole entry, the tested form may be a part): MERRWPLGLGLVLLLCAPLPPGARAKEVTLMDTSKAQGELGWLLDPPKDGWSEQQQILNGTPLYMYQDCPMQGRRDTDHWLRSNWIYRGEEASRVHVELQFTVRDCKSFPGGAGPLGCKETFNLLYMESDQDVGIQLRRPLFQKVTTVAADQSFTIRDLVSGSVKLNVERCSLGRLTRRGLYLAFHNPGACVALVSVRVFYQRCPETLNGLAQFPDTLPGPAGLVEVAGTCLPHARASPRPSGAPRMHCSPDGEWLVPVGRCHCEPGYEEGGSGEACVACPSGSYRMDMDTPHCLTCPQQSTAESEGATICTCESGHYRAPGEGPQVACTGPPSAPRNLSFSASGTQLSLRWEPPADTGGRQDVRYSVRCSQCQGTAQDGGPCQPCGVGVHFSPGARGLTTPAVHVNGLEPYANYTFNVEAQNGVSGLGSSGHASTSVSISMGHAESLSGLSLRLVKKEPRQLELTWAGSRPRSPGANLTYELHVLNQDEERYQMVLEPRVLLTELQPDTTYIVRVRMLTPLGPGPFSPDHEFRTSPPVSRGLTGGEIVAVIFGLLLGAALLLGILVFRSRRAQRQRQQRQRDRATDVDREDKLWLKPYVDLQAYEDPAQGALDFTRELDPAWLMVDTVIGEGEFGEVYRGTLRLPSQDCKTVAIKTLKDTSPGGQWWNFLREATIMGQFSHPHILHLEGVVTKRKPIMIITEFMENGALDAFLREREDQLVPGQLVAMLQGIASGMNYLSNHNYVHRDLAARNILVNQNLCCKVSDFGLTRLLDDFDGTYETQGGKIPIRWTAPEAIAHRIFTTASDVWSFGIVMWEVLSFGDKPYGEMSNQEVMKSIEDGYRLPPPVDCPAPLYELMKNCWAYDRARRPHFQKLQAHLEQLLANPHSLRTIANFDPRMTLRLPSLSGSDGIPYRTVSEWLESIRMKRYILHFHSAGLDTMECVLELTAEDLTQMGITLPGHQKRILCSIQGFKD
Sequence of Tyrosine-protein kinase ZAP-70 (Homo sapiens) (P43403 whole entry, the tested form may be a part): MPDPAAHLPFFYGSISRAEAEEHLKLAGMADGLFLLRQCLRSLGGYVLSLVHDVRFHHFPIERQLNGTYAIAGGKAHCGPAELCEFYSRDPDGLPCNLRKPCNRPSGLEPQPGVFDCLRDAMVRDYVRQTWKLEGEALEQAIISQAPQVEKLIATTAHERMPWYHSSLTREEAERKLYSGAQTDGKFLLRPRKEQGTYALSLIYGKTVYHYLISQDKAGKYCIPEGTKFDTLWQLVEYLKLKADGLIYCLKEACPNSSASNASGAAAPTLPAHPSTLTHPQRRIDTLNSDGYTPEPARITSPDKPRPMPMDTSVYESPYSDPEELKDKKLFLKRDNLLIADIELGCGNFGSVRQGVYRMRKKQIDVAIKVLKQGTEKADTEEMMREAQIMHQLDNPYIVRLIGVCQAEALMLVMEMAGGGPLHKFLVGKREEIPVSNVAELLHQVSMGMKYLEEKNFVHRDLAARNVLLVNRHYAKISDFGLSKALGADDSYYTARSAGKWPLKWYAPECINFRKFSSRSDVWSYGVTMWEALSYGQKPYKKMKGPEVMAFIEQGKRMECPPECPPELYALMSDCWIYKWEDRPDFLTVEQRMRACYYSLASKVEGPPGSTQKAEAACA
Sequence of Atypical kinase COQ8A, mitochondrial (Homo sapiens) (Q8NI60 163-647 limits assumed): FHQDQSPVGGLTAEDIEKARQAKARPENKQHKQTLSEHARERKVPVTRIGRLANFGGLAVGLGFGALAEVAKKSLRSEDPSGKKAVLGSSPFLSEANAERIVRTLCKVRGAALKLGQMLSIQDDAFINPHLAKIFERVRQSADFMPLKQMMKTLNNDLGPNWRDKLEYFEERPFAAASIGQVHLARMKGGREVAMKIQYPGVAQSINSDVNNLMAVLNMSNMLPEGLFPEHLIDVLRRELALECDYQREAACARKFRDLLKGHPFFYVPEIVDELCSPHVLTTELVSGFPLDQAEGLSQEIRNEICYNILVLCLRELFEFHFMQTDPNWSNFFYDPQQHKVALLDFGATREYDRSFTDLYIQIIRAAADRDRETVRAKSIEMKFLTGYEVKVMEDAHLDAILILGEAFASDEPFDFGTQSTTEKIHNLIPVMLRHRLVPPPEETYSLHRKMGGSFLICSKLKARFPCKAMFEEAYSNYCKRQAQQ
Sequence of Serine/threonine-protein kinase MRCK alpha (Homo sapiens) (Q5VT25 whole entry, the tested form may be a part): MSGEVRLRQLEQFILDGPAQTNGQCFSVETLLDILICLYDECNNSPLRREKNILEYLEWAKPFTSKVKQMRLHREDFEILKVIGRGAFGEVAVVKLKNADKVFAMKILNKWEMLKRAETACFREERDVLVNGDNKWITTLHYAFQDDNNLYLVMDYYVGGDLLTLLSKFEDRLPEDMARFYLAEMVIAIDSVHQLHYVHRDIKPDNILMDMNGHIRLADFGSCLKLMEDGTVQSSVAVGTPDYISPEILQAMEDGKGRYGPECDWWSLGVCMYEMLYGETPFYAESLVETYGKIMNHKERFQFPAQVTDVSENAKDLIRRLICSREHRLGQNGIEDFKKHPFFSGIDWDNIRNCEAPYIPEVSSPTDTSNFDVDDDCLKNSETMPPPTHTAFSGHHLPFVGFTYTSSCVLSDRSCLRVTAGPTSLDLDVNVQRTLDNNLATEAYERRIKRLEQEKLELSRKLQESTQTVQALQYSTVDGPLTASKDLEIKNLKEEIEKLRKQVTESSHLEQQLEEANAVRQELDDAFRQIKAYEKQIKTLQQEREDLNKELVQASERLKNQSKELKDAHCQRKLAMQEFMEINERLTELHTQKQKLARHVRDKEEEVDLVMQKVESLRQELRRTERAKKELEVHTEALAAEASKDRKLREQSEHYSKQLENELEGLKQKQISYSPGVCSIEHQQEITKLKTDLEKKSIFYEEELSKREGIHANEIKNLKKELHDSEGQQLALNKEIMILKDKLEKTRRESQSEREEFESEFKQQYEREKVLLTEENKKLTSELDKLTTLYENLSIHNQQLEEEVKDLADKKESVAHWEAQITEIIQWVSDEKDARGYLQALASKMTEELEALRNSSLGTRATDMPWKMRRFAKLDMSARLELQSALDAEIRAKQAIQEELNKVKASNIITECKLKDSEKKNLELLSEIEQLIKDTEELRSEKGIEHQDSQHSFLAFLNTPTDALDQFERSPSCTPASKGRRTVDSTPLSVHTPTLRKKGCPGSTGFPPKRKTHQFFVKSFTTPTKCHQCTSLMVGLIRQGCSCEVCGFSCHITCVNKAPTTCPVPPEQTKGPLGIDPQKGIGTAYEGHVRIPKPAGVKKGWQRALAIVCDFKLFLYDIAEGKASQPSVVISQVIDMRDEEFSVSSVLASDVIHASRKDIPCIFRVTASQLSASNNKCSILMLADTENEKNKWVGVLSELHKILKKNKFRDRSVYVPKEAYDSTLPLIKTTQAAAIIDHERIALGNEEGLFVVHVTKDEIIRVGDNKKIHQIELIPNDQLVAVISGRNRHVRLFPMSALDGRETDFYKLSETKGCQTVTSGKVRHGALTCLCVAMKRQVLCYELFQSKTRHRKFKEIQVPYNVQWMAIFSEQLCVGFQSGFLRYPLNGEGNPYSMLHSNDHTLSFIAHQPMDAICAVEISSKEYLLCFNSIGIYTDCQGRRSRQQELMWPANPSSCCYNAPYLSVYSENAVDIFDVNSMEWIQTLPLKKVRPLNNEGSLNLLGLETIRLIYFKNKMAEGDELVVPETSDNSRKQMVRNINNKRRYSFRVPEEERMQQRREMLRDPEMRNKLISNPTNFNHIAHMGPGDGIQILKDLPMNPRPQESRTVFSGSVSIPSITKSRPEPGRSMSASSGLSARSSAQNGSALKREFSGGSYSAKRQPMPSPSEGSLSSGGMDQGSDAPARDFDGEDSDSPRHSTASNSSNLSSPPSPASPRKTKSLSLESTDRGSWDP
Sequence of Fibroblast growth factor receptor 4 (Homo sapiens) (P22455 22-802 limits assumed): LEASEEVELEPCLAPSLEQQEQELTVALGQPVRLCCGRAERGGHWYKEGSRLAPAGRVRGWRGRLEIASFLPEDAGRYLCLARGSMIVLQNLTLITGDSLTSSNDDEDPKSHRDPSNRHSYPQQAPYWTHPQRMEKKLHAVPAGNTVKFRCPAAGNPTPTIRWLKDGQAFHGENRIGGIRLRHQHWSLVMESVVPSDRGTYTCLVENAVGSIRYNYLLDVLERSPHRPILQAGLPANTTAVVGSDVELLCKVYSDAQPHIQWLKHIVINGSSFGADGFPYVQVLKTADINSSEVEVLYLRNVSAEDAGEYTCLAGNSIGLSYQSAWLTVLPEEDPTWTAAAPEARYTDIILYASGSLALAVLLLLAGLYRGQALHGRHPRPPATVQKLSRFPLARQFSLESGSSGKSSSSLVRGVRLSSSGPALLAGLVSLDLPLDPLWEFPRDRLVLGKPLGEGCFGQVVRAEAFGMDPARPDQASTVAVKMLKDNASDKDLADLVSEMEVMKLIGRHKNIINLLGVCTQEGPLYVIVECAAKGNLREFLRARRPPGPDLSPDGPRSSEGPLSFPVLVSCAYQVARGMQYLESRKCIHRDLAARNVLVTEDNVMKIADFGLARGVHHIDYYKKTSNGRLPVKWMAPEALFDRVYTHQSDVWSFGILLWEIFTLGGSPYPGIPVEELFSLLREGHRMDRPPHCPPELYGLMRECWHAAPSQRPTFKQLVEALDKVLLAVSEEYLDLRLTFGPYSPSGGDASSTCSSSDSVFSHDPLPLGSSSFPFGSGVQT

CC1(C)[C@H](Nc2c(C(N)=O)cnn3cc(-c4ccccc4)cc23)CC[C@]1(C)N
Activity [1]: 100%
Activity [2]: 100%
Activity [3]: 93%
Activity [4]: 81%
Activity [5]: 50%
Activity [6]: 100%
activity at 0.05 µM [7]: 3.9%
Activity [8]: 100%
Activity [9]: 79%
Activity [10]: 80%
Activity [11]: 88%
Activity [12]: 87%
Activity [13]: 100%
Activity [14]: 74%
Activity [15]: 100%
Activity [16]: 100%
Activity [17]: 100%
Activity [18]: 67%
Activity [19]: 100%
Activity [20]: 47%
Activity [21]: 100%
Activity [22]: 100%
Activity [23]: 66%
Activity [24]: 73%
Activity [25]: 49%

COc1ccc(-c2cc3c(N[C@@H]4CC[C@](C)(N)C4(C)C)c(C(N)=O)cnn3c2)cn1
Activity [1]: 76%
Activity [2]: 100%
Activity [3]: 100%
Activity [4]: 100%
Activity [5]: 99%
Activity [6]: 100%
activity at 0.05 µM [7]: 17%
Activity [8]: 86%
Activity [9]: 92%
Activity [10]: 93%
Activity [11]: 91%
Activity [12]: 94%
Activity [13]: 98%
Activity [14]: 97%
Activity [15]: 100%
Activity [16]: 95%
Activity [17]: 82%
Activity [18]: 100%
Activity [19]: 88%
Activity [20]: 72%
Activity [21]: 100%
Activity [22]: 88%
Activity [23]: 93%
Activity [24]: 100%
Activity [25]: 70%
